Where two headings read alike, the source gives them in different places.
What was measured:
[1] = system: Rice bacterial seeding blight (Rhizopus oryzae); experiment: Anti-bacterial effect on various microorganisms (plate medium), R.o; type: cell-based
[2] = system: Wheat pink snow mold (Microdochium nivale); experiment: Anti-bacterial effect on various microorganisms (plate medium), M.n; type: cell-based
[3] = system: Rice blast (Pyricularia oryzae); type: cell-based
[4] = system: Wheat fusarium blight (Fusarium graminearum); type: cell-based
[5] = system: Sclerotinia rot (Sclerotinia sclerotiorum); experiment: Anti-bacterial effect on various microorganisms (plate medium), S.s; type: cell-based
[6] = system: wheat-brown-rust-causing microorganisms; experiment: Controlling effect on wheat brown rust (spray, pot test); type: in vivo, Puccinia recondita; settings: 1 mg/L sprayed at 1,000 L/ha, wheat NORIN No. 61, 9 to 14 days after inoculation
Description: Onto a wheat plant (cultivar: NORIN No. 61) grown to the two-leaf stage with use of a square plastic pot (6 cm×6 cm), a wettable formulation such as Formulation Example 1 which was diluted and suspended in water at a concentration of 1 mg/L was sprayed at a rate of 1,000 L/ha. The sprayed leaves were air-dried, and inoculated with spore suspension of wheat-brown-rust-causing microorganisms (adjusted at 200 spores/vision, […] was added at 60 ppm) by spraying, and kept at 25° C. and a high humidity for 48 hours. Thereafter, the plant was kept in a greenhouse. Nine to fourteen days after inoculation, the wheat brown rust lesion degree was evaluated. The protective value was calculated by the following equation. Protective value (%)=(1-mean lesion degree in sprayed plot/mean lesion degree in unsprayed plot)×100 [table] [table]

[7] = system: Alternaria blotch (Alternaria alternata); experiment: Anti-bacterial effect on various microorganisms (plate medium), A.m; type: cell-based
[8] = system: Barley leaf blotch (Rhynchosporium secalis); experiment: Anti-bacterial effect on various microorganisms (plate medium), R. sec; type: cell-based
[9] = system: Wheat Septoria nodorum blotch microorganism (Phaeosphaeria nodorum); experiment: Anti-bacterial effect on various microorganisms (plate medium), P.n; type: cell-based
[10] = system: wheat leaf blight-causing microorganisms; experiment: Anti-bacterial effect on wheat leaf blight-causing microorganisms (PDA plate, mycelial growth inhibition); type: cell-based, Septoria tritici; settings: 1.25 mg/L in PDA plate medium, 25° C., 14 days
Description: In Test Examples, an anti-bacterial effect of a compound in accordance with the present invention on the wheat leaf blight-causing microorganisms was tested, and was compared with the anti-bacterial effect of a comparative compound (1).
A dimethyl sulfoxide solution (0.6 ml) containing a compound in accordance with the present invention was added to a PDA medium (potato dextrose agar medium) (60 ml) having about 60° C., and the resultant mixture was mixed thoroughly in a 100-ml conical flask. The mixture was poured into a dish, and was solidified. […]
On the other hand, a subject microorganism previously cultured on a plate medium was cut out with use of a cork borer whose diameter was 4 mm, and the wheat leaf blight-causing microorganism on the plate medium thus cut out was inoculated to the chemical-containing plate medium described above. After such inoculation, the chemical-containing plate medium was incubated at 25° C. for 14 days, and then diameters of its flora were measured. A % mycelial growth inhibition was calculated with use of the formula. R=100(dc−dt)/dc (where R=% mycelial extension inhibition, dc=flora diameter in untreated plate, dt=flora diameter in treated plate)
The results obtained as described above were evaluated on a five-point scale according to the following criteria.
• 5: % Mycerial growth inhibition of 80% or higher • 4: % Mycerial growth inhibition of less than 80 to 60% or higher • 3: % Mycerial growth inhibition of less than 60 to 40% or higher • 2: % Mycerial growth inhibition of less than 40 to 20% or higher • 1: % Mycerial growth inhibition of less than 20%

[11] = system: Gray mold (Botritis cinerea); experiment: Anti-bacterial effect on various microorganisms (plate medium), B.c; type: cell-based
[12] = system: Barley loose smut (Ustilago nuda); experiment: Anti-bacterial effect on various microorganisms (plate medium), U.n; type: cell-based
[13] = system: Wheat eye spot (Pseudocercoporella herpotrichoides); experiment: Anti-bacterial effect on various microorganisms (plate medium), P.h; type: cell-based
[14] = system: Rice bakanae disease (Giberella fujikuroi); experiment: Anti-bacterial effect on various microorganisms (plate medium), G.f; type: cell-based
[15] = system: Cucumber fusarium wilt (Fusarium oxysporum); experiment: Anti-bacterial effect on various microorganisms (plate medium), F.c; type: cell-based

Row | SMILES | Growth inhibition grade R.o ([1]; 1.25 mg/L) | Growth inhibition grade R.o ([1]; 5 mg/L) | Growth inhibition grade M.n ([2]; 1.25 mg/L) | Growth inhibition grade M.n ([2]; 5 mg/L) | Growth inhibition grade P.o ([3]; 1.25 mg/L) | Growth inhibition grade P.o ([3]; 5 mg/L) | Growth inhibition grade F.g ([4]; 1.25 mg/L) | Growth inhibition grade F.g ([4]; 5 mg/L) | Growth inhibition grade S.s ([5]; 1.25 mg/L) | Growth inhibition grade S.s ([5]; 5 mg/L) | Protective value [6] | Growth inhibition grade A.m ([7]; 1.25 mg/L) | Growth inhibition grade A.m ([7]; 5 mg/L) | Growth inhibition grade R. sec ([8]; 1.25 mg/L) | Growth inhibition grade R. sec ([8]; 5 mg/L) | Growth inhibition grade P.n ([9]; 1.25 mg/L) | Growth inhibition grade P.n ([9]; 5 mg/L) | Growth inhibition grade [10] | Growth inhibition grade B.c ([11]; 1.25 mg/L) | Growth inhibition grade B.c ([11]; 5 mg/L) | other results
1 | COC[C@]1(CCl)CC[C@H](Cc2ccc(Cl)cc2)[C@]1(O)Cn1cncn1 (racemic) [Compound I-16b, (1RS,2RS,5RS)-5-(4-chlorobenzyl)-2-chloromethyl-2-methoxymethyl-1H-[1,2,4]triazole-1-ylmethylcyclopentanol] | 5 (% Mycerial growth inhibition of 80% or higher) | 5 (% Mycerial growth inhibition of 80% or higher) | 3 (% Mycerial growth inhibition of less than 60 to 40% or higher) | 5 (% Mycerial growth inhibition of 80% or higher) | – | – | – | – | – | – | – | – | – | – | – | – | – | – | – | – | –
2 | COC[C@]1(CCl)CC[C@@H](Cc2ccc(F)cc2)[C@]1(O)Cn1cncn1 (racemic) [Compound I-170, (1RS,2RS,5SR)-5-(4-fluorobenzyl)-2-chloromethyl-2-methoxymethyl-1H-[1,2,4]triazole-1-ylmethylcyclopentanol] | 5 (% Mycerial growth inhibition of 80% or higher) | 5 (% Mycerial growth inhibition of 80% or higher) | 5 (% Mycerial growth inhibition of 80% or higher) | 5 (% Mycerial growth inhibition of 80% or higher) | 5 (% Mycerial growth inhibition of 80% or higher) | 5 (% Mycerial growth inhibition of 80% or higher) | 5 (% Mycerial growth inhibition of 80% or higher) | 5 (% Mycerial growth inhibition of 80% or higher) | 5 (% Mycerial growth inhibition of 80% or higher) | 5 (% Mycerial growth inhibition of 80% or higher) | 4 (61 to 80) | 4 (% Mycerial growth inhibition of less than 80 to 60% or higher) | 5 (% Mycerial growth inhibition of 80% or higher) | 5 (% Mycerial growth inhibition of 80% or higher) | 5 (% Mycerial growth inhibition of 80% or higher) | 5 (% Mycerial growth inhibition of 80% or higher) | 5 (% Mycerial growth inhibition of 80% or higher) | 5 (% Mycerial growth inhibition of 80% or higher) | 5 (% Mycerial growth inhibition of 80% or higher) | 5 (% Mycerial growth inhibition of 80% or higher) | Growth inhibition grade U.n ([12]; 1.25 mg/L): 5 (% Mycerial growth inhibition of 80% or higher); Growth inhibition grade U.n ([12]; 5 mg/L): 5 (% Mycerial growth inhibition of 80% or higher); Growth inhibition grade P.h ([13]; 1.25 mg/L): 5 (% Mycerial growth inhibition of 80% or higher); Growth inhibition grade P.h ([13]; 5 mg/L): 5 (% Mycerial growth inhibition of 80% or higher); Growth inhibition grade G.f ([14]; 1.25 mg/L): 5 (% Mycerial growth inhibition of 80% or higher); Growth inhibition grade G.f ([14]; 5 mg/L): 5 (% Mycerial growth inhibition of 80% or higher); Growth inhibition grade F.c ([15]; 1.25 mg/L): 5 (% Mycerial growth inhibition of 80% or higher); Growth inhibition grade F.c ([15]; 5 mg/L): 5 (% Mycerial growth inhibition of 80% or higher)
3 | COC[C@]1(CCl)CC[C@@H](Cc2ccccc2)[C@]1(O)Cn1cncn1 (racemic) [Compound I-187, (1RS,2RS,5SR)-5-benzyl-2-chloromethyl-2-methoxymethyl-1H-[1,2,4]triazole-1-ylmethylcyclopentanol] | 5 (% Mycerial growth inhibition of 80% or higher) | 5 (% Mycerial growth inhibition of 80% or higher) | 5 (% Mycerial growth inhibition of 80% or higher) | 5 (% Mycerial growth inhibition of 80% or higher) | 5 (% Mycerial growth inhibition of 80% or higher) | 5 (% Mycerial growth inhibition of 80% or higher) | 5 (% Mycerial growth inhibition of 80% or higher) | 5 (% Mycerial growth inhibition of 80% or higher) | 5 (% Mycerial growth inhibition of 80% or higher) | 5 (% Mycerial growth inhibition of 80% or higher) | 4 (61 to 80) | 4 (% Mycerial growth inhibition of less than 80 to 60% or higher) | 5 (% Mycerial growth inhibition of 80% or higher) | 5 (% Mycerial growth inhibition of 80% or higher) | 5 (% Mycerial growth inhibition of 80% or higher) | 4 (% Mycerial growth inhibition of less than 80 to 60% or higher) | 5 (% Mycerial growth inhibition of 80% or higher) | 5 (% Mycerial growth inhibition of 80% or higher) | 5 (% Mycerial growth inhibition of 80% or higher) | 5 (% Mycerial growth inhibition of 80% or higher) | Growth inhibition grade U.n ([12]; 1.25 mg/L): 5 (% Mycerial growth inhibition of 80% or higher); Growth inhibition grade U.n ([12]; 5 mg/L): 5 (% Mycerial growth inhibition of 80% or higher); Growth inhibition grade P.h ([13]; 1.25 mg/L): 5 (% Mycerial growth inhibition of 80% or higher); Growth inhibition grade P.h ([13]; 5 mg/L): 5 (% Mycerial growth inhibition of 80% or higher); Growth inhibition grade G.f ([14]; 1.25 mg/L): 5 (% Mycerial growth inhibition of 80% or higher); Growth inhibition grade G.f ([14]; 5 mg/L): 5 (% Mycerial growth inhibition of 80% or higher); Growth inhibition grade F.c ([15]; 1.25 mg/L): 5 (% Mycerial growth inhibition of 80% or higher); Growth inhibition grade F.c ([15]; 5 mg/L): 5 (% Mycerial growth inhibition of 80% or higher)

— US9241488B2, “Azole derivative, method for producing azole derivative, and intermediate compound” (KUREHA CORPORATION, priority 2011, dated 2016)
